Common to all, as to assay: Test A preemergence
Settings in all cases: 1000 g ai/ha, 0 to 100 scale (0 no effect, 100 complete control), 10 days

In test [1] the test system is Pigweed, Redroot. It counts as in vivo, Amaranthus retroflexus. From the text:
Seeds of plant species selected from barnyardgrass (Echinochloa crusgalli), blackgrass (Alopecurus myosuroides), corn (Zea mays), foxtail, giant (giant foxtail, Setaria faberi), goosegrass (Eleusine indica), kochia (Bassia scoparia), oat, wild (wild oat, Avena fatua), pigweed, palmer (palmer amaranth, palmer pigweed, Amaranthus palmeri), Pigweed, Redroot (redroot pigweed, Amaranthus retroflexus), ragweed (common ragweed, Ambrosia artemisiifolia), ryegrass, Italian (italian ryegrass, Lolium multiflorum), soybean (Glycine max), and wheat (Triticum aestivum) were planted into a blend of loam soil and sand and treated preemergence with a directed soil spray using test chemicals formulated in a non-phytotoxic solvent mixture which included a surfactant. At the same time, plants selected from these crops and weed species and also galium (catchweed bedstraw, Galium aparine) and horseweed (Erigeron canadensis) were planted in pots containing the same blend of loam soil and sand and treated with postemergence applications of test chemicals formulated in the same manner. Plants ranged in height from 2 to 10 cm and were in the one- to two-leaf stage for the postemergence treatment. Treated plants and untreated controls were maintained in a greenhouse for 10 days, after which time all treated plants were compared to untreated controls and visually evaluated for injury. Plant response ratings, summarized in Table A, are based on a 0 to 100 scale where 0 is no effect and 100 is complete control. A dash (-) response means no test result.

In test [2] the test system is ryegrass, Italian. It counts as in vivo, Lolium multiflorum. The essentials: (§1)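 Loam/sand soil; pre-em directed soil spray at planting, post-em spray at 1–2 leaf (2–10 cm). Compound in non-phytotoxic solvent + surfactant. Greenhouse 10 d; visual injury vs untreated, 0 = no effect, 100 = complete control.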
Test [3] concerns kochia. It counts as in vivo, Bassia scoparia. The essentials:
as §1

For test [4], the system named is ragweed. It counts as in vivo, Ambrosia artemisiifolia. The essentials:
as §1

Test [5] has as its system barnyardgrass. It counts as in vivo, Echinochloa crusgalli. The procedure, abridged:
as §1

For test [6], the system named is foxtail, giant. It counts as in vivo, Setaria faberi. The essentials: as §1

As to `CC1CN(C(=O)c2ccnc(-n3cncn3)c2)c2cccc(Cl)c2O1` (stereo not drawn) [Compound 9], the “Plant response rating, Pigweed, Redroot” value in test [1] came to 0. In addition, the “Plant response rating, Ryegrass, Italian” value in test [2] came to 0. Moreover, the “Plant response rating, Kochia” value in test [3] amounted to 0. In test [4], the “Plant response rating, Ragweed” value was determined as 0. Besides, the “Plant response rating, Barnyardgrass” value in test [5] is given as 0. The “Plant response rating, Foxtail, Giant” value in test [6] is listed as 0.
`CCC1CN(C(=O)c2ccnc(-n3cncn3)c2)c2cccc(Br)c2O1` (stereo not drawn) [Compound 13]: in test [1], the “Plant response rating, Pigweed, Redroot” value is 50. Further, the “Plant response rating, Ryegrass, Italian” value in test [2] turned out to be 30. Moreover, the “Plant response rating, Kochia” value in test [3] is listed as 60. Further, the “Plant response rating, Ragweed” value in test [4] is reported as 0. The “Plant response rating, Barnyardgrass” value in test [5] was found to be 0. The “Plant response rating, Foxtail, Giant” value in test [6] was 90.
